Results as given in US20140066365A1, “USE OF CALIXARENES ASSOCIATED WITH AN ANTIBIOTIC IN THE TREATMENT OF BACTERIAL INFECTIONS” (priority 2011, published 2014).
Converted amounts (≈) assume the structure as drawn. Like-named read-outs stand apart in the source and are kept apart here. Values belong to the molecule of their own block, whether it stands above or below them.

What was measured:
[1] = system: Staphylococcus aureus strain ATCC 29213 (wild type); experiment: MIC of the compounds used alone, microdilution in a liquid medium (CLSI); type: cell-based; details: Staphylococcus aureus
Source text: (§1) The MICs of the antibiotics were previously defined for each strain, by the method of microdilution in a liquid medium (CLSI (Clinical and Laboratory Standards Institute), 2003).

[2] = as above; type: cell-based, Staphylococcus aureus; details: Staphylococcus aureus, MRSA
Source text: as §1

[3] = system: MRSA strain having a resistance to the aminoglycosides and fluoroquinolones (SaR3); experiment: as above; type: cell-based, Staphylococcus aureus; details: Staphylococcus aureus, MRSA
Source text: as §1

[4] = system: MRSA strain without associated resistance (SaR1); experiment: as above; type: cell-based, Staphylococcus aureus; details: Staphylococcus aureus, MRSA
Source text: as §1

[5] = system: Escherichia coli, Staphylococcus aureus and Pseudomonas aeruginosa strains; experiment: Chessboard technique, summary statements over all strains and combinations tested; type: cell-based; details: strain not stated
Source text: 1.3. Procedure: Chessboard Technique
The same procedure is followed for the Cx1. […] Thus 64 ATB/Cx1 combinations are obtained.
The FIC (Fractional Inhibitory Concentration Index) value is defined by the following formula: […]
When FIC≦0.5, there is a synergistic effect between antibiotic A and antibiotic B.
When 0.5<FIC≦1, there is an additive effect between antibiotic A and antibiotic B.
When 1<FIC≦4, there is an indifferent effect between antibiotic A and antibiotic B.
When FIC>4, there is an antagonistic effect between antibiotic A and antibiotic B.
For each strain and each antibiotic/Cx1 combination, the experiments were repeated a minimum of 3 times.

[6] = system: ESBL-producing strain of Escherichia coli, having an associated resistance to the aminoglycosides (EcR3); experiment: MIC of the compounds used alone, microdilution in a liquid medium (CLSI); type: cell-based; details: Escherichia coli, antibiotic alone (second value of cell), read-out: Initial MICs
Source text: as §1

[7] = system: Escherichia coli strain ATCC 25922 (wild type); experiment: as above; type: cell-based; details: Escherichia coli, ATCC25922; antibiotic alone (second value of cell); E. coli ATCC 25922; read-out: Initial MICs
Source text: as §1

[8] = system: Pseudomonas aeruginosa strain ATCC 27853 (wild type); experiment: as above; type: cell-based; details: Pseudomonas aeruginosa, ATCC27853; antibiotic alone (second value of cell); P. aeruginosa ATCC 27853; read-out: MIC
Source text: as §1

[9] = system: Pseudomonas aeruginosa strain PaR3; experiment: as above; type: cell-based; details: Pseudomonas aeruginosa, antibiotic alone (second value of cell), read-out: MIC
Source text: as §1

[10] = system: cephalosporinase-hyperproducing strain of Escherichia coli (EcR2); experiment: as above; type: cell-based; details: Escherichia coli, antibiotic alone (second value of cell), read-out: Initial MICs
Source text: as §1

[11] = system: mucoid strain of Pseudomonas aeruginosa PaR5; experiment: as above; type: cell-based; details: Pseudomonas aeruginosa, antibiotic alone (second value of cell), read-out: MIC
Source text: as §1

[12] = system: penicillinase-producing strain of Escherichia coli without associated resistance (EcR1); experiment: as above; type: cell-based; details: Escherichia coli, antibiotic alone (second value of cell), read-out: Initial MICs
Source text: as §1

[13] = system: Pseudomonas aeruginosa strain PaR2; experiment: microbe, parasite or virus in culture; type: cell-based; details: Pseudomonas aeruginosa, antibiotic alone (second value of cell), read-out: MIC
Source text: as §1

[14] = system: EcR1: Penicillinase-Producing Escherichia coli without Associated Resistance; experiment: Antibiogram, MIC by the VITEK 2 system; type: cell-based; details: for MIC: Escherichia coli
Protocol: (§2) 5.1 EcR1: Penicillinase-Producing Escherichia coli without Associated Resistance The bacterial and antibiogramidentification is carried out by the VITEK 2 system (bioMérieux) and by the disk diffusion technique.

[15] = system: EcR2: Cephalosporinase-Hyperproducing Strain of Escherichia coli; experiment: Antibiogram, MIC by the VITEK 1 system; type: cell-based; details: Escherichia coli, read-out: MIC
Protocol: The bacterial and antibiogramidentification is carried out by the VITEK 1 system (bioMérieux) and by the disk diffusion technique

[16] = system: EcR3: ESBL-Producing Escherichia coli; experiment: Antibiogram by the disk diffusion technique; type: cell-based; details: for Diameter: Table C1; for diameter in mm: Table C2
Protocol: The bacterial and antibiogramidentification is carried out by the VITEK 2 system (bioMerieux) and by the disk diffusion technique

[17] = system: PaR3: Pseudomonas aeruginosa; experiment: Antibiogram, MIC by the VITEK 2 system; type: cell-based
Protocol: The bacterial and antibiogramidentification is carried out by the VITEK 2 system (bioMérieux)

[18] = system: PaR5: Pseudomonas aeruginosa; experiment: Antibiogram by the disk diffusion technique; type: cell-based; details: for diameter in mm: disk diffusion inhibition diameter, strain PaR5
Protocol: (§3) The bacterial and antibiogramidentification is carried out by the VITEK 2 system (bioMérieux) and by the disk diffusion technique

[19] = system: PaR2: Pseudomonas aeruginosa; type: cell-based; details: for Diameter: Table G1; for diameter in mm: Table G2
Protocol: as §3

[20] = system: EcR1: Penicillinase-Producing Escherichia coli without Associated Resistance; experiment: Antibiogram by the disk diffusion technique; type: cell-based; details: Table A1
Protocol: as §2

[21] = ATCC29213, antibiotic alone (second value of cell), S. aureus ATCC 29213, read-out: Initial MICs
[22] = EcR1, Table A2, read-out: MIC mg/L (diameter in mm)
[23] = EcR1, VITEK 2, Table A1, read-out: MIC
[24] = Pseudomonas aeruginosa, Table H2, read-out: MIC

SMILES: CN(C)c1cc(NC(=O)CNC(C)(C)C)c(O)c2c1C[C@H]1C[C@H]3[C@H](N(C)C)C(O)=C(C(N)=O)C(=O)[C@@]3(O)C(O)=C1C2=O [Tigecycline]
MIC ([1]; ATCC29213, read-out: Initial MICs (mg/L)): 0.25 mg/L
MIC [2]: 0.25 µg/mL
MIC [3]: 0.25 µg/mL
MIC [4]: 0.25 µg/mL
interaction between the antibiotic and Cx1 [5]: synergism

MIC [6]: 0.125 µg/mL
MIC [7]: 0.125 µg/mL
MIC [8]: 2 µg/mL
MIC [9]: 32 µg/mL
MIC [1, 21]: 0.015 mg/L
MIC [10]: 0.125 µg/mL
MIC [11]: 2 µg/mL
MIC [12]: 0.125 µg/mL
MIC ([2]; antibiotic alone (second value of cell), SaR4, read-out: MIC): 2 µg/mL
MIC ([3]; antibiotic alone (second value of cell), SaR3, read-out: MIC): 0.25 µg/mL
MIC ([4]; antibiotic alone (second value of cell), SaR1, read-out: MIC): 0.25 µg/mL
MIC [13]: 2 µg/mL (≈ 6.68 µM)
MIC [14, 22]: ≤ 0.5 mg/L
MIC [14, 23]: ≤ 1 mg/L
MIC ([15]; EcR2, VITEK 1, Table B1): ≤ 4 µg/mL
MIC ([15]; EcR2, Table B2, MIC): ≤ 0.5 µg/mL
MIC [17, 24]: ≥ 16 µg/mL
MIC ([17]; Table H1): ≧16
SMILES: C[C@@H](O)[C@H]1C(=O)N2C(C(=O)O)=C(SCCN=CN)C[C@H]12 [Imipenem]
Diameter [16]: 27 mm
diameter in mm [16]: 27 mm
Diameter ([18]; PaR5, Table I1): 25 mm
diameter in mm [18]: 25 mm
Diameter [19]: 27 mm
diameter in mm [19]: 27 mm

MIC [6]: 1 µg/mL
MIC [7]: 0.25 µg/mL
MIC [8]: 0.5 µg/mL
MIC [9]: 1 µg/mL
MIC [1, 21]: 1 mg/L
MIC [10]: 0.5 µg/mL
MIC [11]: 0.5 µg/mL
MIC [12]: 0.25 µg/mL
MIC [13]: 1 µg/mL (≈ 1.71 µM)
MIC [14, 22]: ≤ 2 mg/L
MIC [14, 23]: ≤ 2 mg/L
MIC [17, 24]: 4 µg/mL (≈ 6.83 µM)
MIC ([17]; Table H1): 4 µg/mL (≈ 6.83 µM)
SMILES: NCC[C@H](O)C(=O)N[C@@H]1C[C@H](N)[C@@H](O[C@H]2O[C@H](CN)[C@@H](O)[C@H](O)[C@H]2O)[C@H](O)[C@H]1O[C@H]1O[C@H](CO)[C@@H](O)[C@H](N)[C@H]1O [Amikacin]
CA-SFM Interpretation ([14]; EcR1, MIC against Cc CA-SFM 2011): Susceptible
CLSI Interpretation ([14]; EcR1, MIC against Cc CLSI 2011): Susceptible
EUCAST Interpretation ([14]; EcR1, MIC against Cc EUCAST 2011): Susceptible
Results ([14]; EcR1, interpretation of the MIC, Table A1): Susceptible
Diameter ([20]; EcR1, disk diffusion): 19 mm
Results ([20]; EcR1, interpretation of the diameter against Dmin Dmax): Susceptible
CA-SFM Interpretation ([16]; Cd CA-SFM 2011): Susceptible
CLSI Interpretation ([16]; Cd CLSI 2011): Susceptible
EUCAST Interpretation ([16]; Cd EUCAST 2011): Susceptible
Diameter [16]: 17 mm
Results ([16]; Table C1, against Dmin Dmax): Susceptible
diameter in mm [16]: 17 mm
CA-SFM Interpretation ([17]; Cc CA-SFM 2011): Susceptible
CLSI Interpretation ([17]; Cc CLSI 2011): Susceptible
EUCAST Interpretation ([17]; Cc EUCAST 2011): Susceptible
Results ([17]; Table H1): Susceptible
Diameter ([18]; PaR5, Table I1): 27 mm
Results ([18]; PaR5, Table I1, against Dmin-Dmax): Susceptible
diameter in mm [18]: 27 mm
CA-SFM Interpretation ([18]; disk diffusion, PaR5, versus critical diameter CA-SFM 2011): Susceptible
CLSI Interpretation ([18]; disk diffusion, PaR5, versus critical diameter CLSI 2011): Susceptible
EUCAST Interpretation ([18]; disk diffusion, PaR5, versus critical diameter EUCAST 2011, for ** antibiotics the disk load differs and the EUCAST interpretation is not applicable): Susceptible
CA-SFM Interpretation ([19]; Cd CA-SFM 2011): Susceptible
CLSI Interpretation ([19]; Cd CLSI 2011): Susceptible
EUCAST Interpretation ([19]; Cd EUCAST 2011): Susceptible
Diameter [19]: 22 mm
Results ([19]; Table G1, against Dmin-Dmax): Susceptible
diameter in mm [19]: 22 mm
